Measured values reported in ChEMBL document CHEMBL3885861, “Open TG-GATES”.

Species: Rattus norvegicus
Test: Open TG-GATES - Regimen: Daily Repeat
Assay type: toxicity, organism-based, Sprague-Dawley
Parameters: regimen Daily Repeat, gender Male, age 6 weeks
Conditions: in vivo, po, 0 mg/kg, route gavage, dose level Control; for APTT / Bas / Eos / Fbg / Hb / Ht / Lym / MCH / MCHC / MCV / Mono / Neu / PT / Plat / RBC / Ret / WBC: tissue Blood; for KIDNEY_L / KIDNEY_R / KIDNEY_TOTAL: tissue Kidney; for LIVER: tissue Liver; for A/G / ALP / ALT / AST / BUN / CRE / Ca / Cl / DBIL / GLC / IP / K / LDH / Na / PL / RALB / TBIL / TC / TG / TP / gamma-GTP: tissue Plasma

## O=C(O)COc1nn(Cc2ccccc2)c2ccccc12 [BENDAZAC]
72 h, time 3 day
  TERMINAL_BW: 229.2 g
  APTT: 17.5 s
  Bas: 0%
  Eos: 1.2%
  Fbg: 223.2 mg/dL
  Hb: 14.2 g/dL
  Ht: 42.6%
  Lym: 77.2%
  MCH: 21.4 pg
  MCHC: 33.3%
  MCV: 64.4 fL
  Mono: 8.2%
  Neu: 13.8%
  PT: 11.6 s
  Plat: 120.1 x10_4/uL
  RBC: 661.6 x10_4/ul
  Ret: 6.5%
  WBC: 93.7 x10_2/uL
  KIDNEY_L: 1 g
  KIDNEY_R: 1 g
  KIDNEY_TOTAL: 2 g
  LIVER: 11.2 g
  A/G: 2.1
  ALP: 1059.4 IU/L
  ALT: 41.4 IU/L
  AST: 68.6 IU/L
  BUN: 16.6 mg/dL
  CRE: 0.5 mg/dL
  Ca: 10.9 mg/dL
  Cl: 103.4 meq/L
  DBIL: 0.022 mg/dL
  GLC: 206.8 mg/dL
  IP: 7.7 mg/dL
  K: 4.7 meq/L
  LDH: 101.4 IU/L
  Na: 139.8 meq/L
  PL: 162.8 mg/dL
  RALB: 3.9 g/dL
  TBIL: 0.3 mg/dL
  TC: 78.2 mg/dL
  TG: 127.8 mg/dL
  TP: 5.7 g/dL
  gamma-GTP: 1.2 IU/L
[…], time 7 day
  TERMINAL_BW: 264.6 g
  APTT: 16.9 s
  Bas: 0%
  Eos: 0.8%
  Fbg: 228.6 mg/dL
  Hb: 14.1 g/dL
  Ht: 41.4%
  Lym: 80.8%
  MCH: 21.5 pg
  MCHC: 34.1%
  MCV: 63.2 fL
  Mono: 6%
  Neu: 12.6%
  PT: 11.5 s
  Plat: 128.1 x10_4/uL
  RBC: 657 x10_4/ul
  Ret: 5.1%
  WBC: 96.5 x10_2/uL
  KIDNEY_L: 1.1 g
  KIDNEY_R: 1.2 g
  KIDNEY_TOTAL: 2.3 g
  LIVER: 13.2 g
  A/G: 2
  ALP: 804.6 IU/L
  ALT: 30 IU/L
  AST: 60.8 IU/L
  BUN: 19.6 mg/dL
  CRE: 0.5 mg/dL
  Ca: 11.3 mg/dL
  Cl: 103.6 meq/L
  DBIL: 0.012 mg/dL
  GLC: 222.6 mg/dL
  IP: 8 mg/dL
  K: 4.8 meq/L
  LDH: 84.8 IU/L
  Na: 141.2 meq/L
  PL: 146.2 mg/dL
  RALB: 3.9 g/dL
  TBIL: 0.3 mg/dL
  TC: 70 mg/dL
  TG: 111 mg/dL
  TP: 5.8 g/dL
  gamma-GTP: 1 IU/L
[…], time 14 day
  TERMINAL_BW: 318.4 g
  APTT: 17.2 s
  Bas: 0%
  Eos: 0.8%
  Fbg: 236 mg/dL
  Hb: 14.5 g/dL
  Ht: 43%
  Lym: 80.4%
  MCH: 21.2 pg
  MCHC: 33.8%
  MCV: 62.8 fL
  Mono: 7%
  Neu: 11.8%
  PT: 11 s
  Plat: 122.8 x10_4/uL
  RBC: 684.4 x10_4/ul
  Ret: 4.3%
  WBC: 120.8 x10_2/uL
  KIDNEY_L: 1.3 g
  KIDNEY_R: 1.3 g
  KIDNEY_TOTAL: 2.6 g
  LIVER: 15.1 g
  A/G: 1.6
  ALP: 749.8 IU/L
  ALT: 32 IU/L
  AST: 61.2 IU/L
  BUN: 18.2 mg/dL
  CRE: 0.5 mg/dL
  Ca: 10.4 mg/dL
  Cl: 105.4 meq/L
  DBIL: 0.006 mg/dL
  GLC: 197.2 mg/dL
  IP: 7.1 mg/dL
  K: 4.7 meq/L
  LDH: 102.2 IU/L
  Na: 141.2 meq/L
  PL: 158 mg/dL
  RALB: 3.8 g/dL
  TBIL: 0.3 mg/dL
  TC: 74.8 mg/dL
  TG: 153.2 mg/dL
  TP: 6.2 g/dL
  gamma-GTP: 2.4 IU/L
[…], time 28 day
  TERMINAL_BW: 399.8 g
  APTT: 17.8 s
  Bas: 0%
  Eos: 1%
  Fbg: 219 mg/dL
  Hb: 15.5 g/dL
  Ht: 45.9%
  Lym: 83.6%
  MCH: 19.8 pg
  MCHC: 33.7%
  MCV: 58.8 fL
  Mono: 4.2%
  Neu: 11.4%
  PT: 11.7 s
  Plat: 115.9 x10_4/uL
  RBC: 779.8 x10_4/ul
  Ret: 3.5%
  WBC: 117.2 x10_2/uL
  KIDNEY_L: 1.4 g
  KIDNEY_R: 1.4 g
  KIDNEY_TOTAL: 2.8 g
  LIVER: 16.2 g
  A/G: 1.4
  ALP: 590.2 IU/L
  ALT: 33.2 IU/L
  AST: 64.4 IU/L
  BUN: 20 mg/dL
  CRE: 0.6 mg/dL
  Ca: 10 mg/dL
  Cl: 104.8 meq/L
  DBIL: 0.01 mg/dL
  GLC: 189.8 mg/dL
  IP: 6.4 mg/dL
  K: 4.4 meq/L
  LDH: 71.4 IU/L
  Na: 140.4 meq/L
  PL: 142.8 mg/dL
  RALB: 3.6 g/dL
  TBIL: 0.3 mg/dL
  TC: 71.2 mg/dL
  TG: 130 mg/dL
  TP: 6.2 g/dL
  gamma-GTP: 1.8 IU/L
